Literature values as cited in patent US20150147306A1, “COMPOSITION FOR TREATING A CIRCADIAN RHYTHM DISORDER” (priority 2012, published 2015).

Settings: in humans

half-life in the serum: 35 to 50 min
Compound: COc1ccc2[nH]cc(CCNC(C)=O)c2c1 [melatonin]
